Target: T1, ΔF508 mutant CFTR (Homo sapiens, UniProt P13569, DEL508-508)
T1 construct: expressed in transfected cells; host or cells: Fischer rat thyroid (FRT) cells
Test: Fluorescence (YFP halide quenching) assay of ΔF508 mutant CFTR activity in FRT cells
Assay type: cell-based
Set-up: key: fold of mean activity with forskolin alone (I− quenching rate)
Conditions: FRT cells expressing ΔF508-CFTR and YFP-H148Q/I152L, rescued at 27° C. 20-24 h; forskolin 20 μM + test compound 20 μM for 20 min; I− influx rate normalized to forskolin alone
Text: The ΔF508 mutant CFTR activities of the CFTR modulators are detected using the Fluorescence Assay developed by Pedemonte (Pedemonte N., et al., Antihypertensive 1,4-dihydropyridines as correctors of the cystic fibrosis transmembrane conductance regulator channel gating defect caused by cystic fibrosis mutations, Mol. Pharmacol., 2005, 68, 1736-1746).
Fischer rat thyroid (FRT) cells, stably transfected with ΔF508 were retransfected with the YFP-H148Q/I152L fluorescent protein. The cells were plated (100,000 cells/well) on black 96-well microplates with clear plastic bottom (Corning Life Sciences, Acton, Mass.).
The 96-well microplates containing FRT cells expressing F508-CFTR and the halide-sensitive YFP were incubated at 27° C. for 20 to 24 h to allow rescue of the mutant protein to the plasma membrane. After incubation, cells were washed with PBS (containing 137 mM NaCl, 2.7 mM KCl, 8.1 mM Na2HPO4, 1.5 mM KH2PO4, 1 mM CaCl2, and 0.5 mM MgCl2) and stimulated for 20 min with forskolin (20 μM) and test compounds (20 μM) in a final volume of 60 μl. Microplates were then transferred to a microplate reader for CFTR activity determination. Each assay consisted of a continuous 14-s fluorescence reading (5 points per second) with 2 s before and 12 s after injection of 165 μl of an iodide-containing solution (PBS with Cl^− replaced by I^−). Final iodide concentration in the wells was 100 mM. […] To determine I^− influx rate, the final 11 s of the data for each well were fitted with an exponential function to extrapolate initial slope. CFTR activity was determined by measuring the rate of fluorescence quenching induced by extracellular addition of I^−. Data are normalized to the mean activity measured in the presence of forskolin alone.

T1 sequence (P13569 with tags, fused parts or gaps DEL508-508): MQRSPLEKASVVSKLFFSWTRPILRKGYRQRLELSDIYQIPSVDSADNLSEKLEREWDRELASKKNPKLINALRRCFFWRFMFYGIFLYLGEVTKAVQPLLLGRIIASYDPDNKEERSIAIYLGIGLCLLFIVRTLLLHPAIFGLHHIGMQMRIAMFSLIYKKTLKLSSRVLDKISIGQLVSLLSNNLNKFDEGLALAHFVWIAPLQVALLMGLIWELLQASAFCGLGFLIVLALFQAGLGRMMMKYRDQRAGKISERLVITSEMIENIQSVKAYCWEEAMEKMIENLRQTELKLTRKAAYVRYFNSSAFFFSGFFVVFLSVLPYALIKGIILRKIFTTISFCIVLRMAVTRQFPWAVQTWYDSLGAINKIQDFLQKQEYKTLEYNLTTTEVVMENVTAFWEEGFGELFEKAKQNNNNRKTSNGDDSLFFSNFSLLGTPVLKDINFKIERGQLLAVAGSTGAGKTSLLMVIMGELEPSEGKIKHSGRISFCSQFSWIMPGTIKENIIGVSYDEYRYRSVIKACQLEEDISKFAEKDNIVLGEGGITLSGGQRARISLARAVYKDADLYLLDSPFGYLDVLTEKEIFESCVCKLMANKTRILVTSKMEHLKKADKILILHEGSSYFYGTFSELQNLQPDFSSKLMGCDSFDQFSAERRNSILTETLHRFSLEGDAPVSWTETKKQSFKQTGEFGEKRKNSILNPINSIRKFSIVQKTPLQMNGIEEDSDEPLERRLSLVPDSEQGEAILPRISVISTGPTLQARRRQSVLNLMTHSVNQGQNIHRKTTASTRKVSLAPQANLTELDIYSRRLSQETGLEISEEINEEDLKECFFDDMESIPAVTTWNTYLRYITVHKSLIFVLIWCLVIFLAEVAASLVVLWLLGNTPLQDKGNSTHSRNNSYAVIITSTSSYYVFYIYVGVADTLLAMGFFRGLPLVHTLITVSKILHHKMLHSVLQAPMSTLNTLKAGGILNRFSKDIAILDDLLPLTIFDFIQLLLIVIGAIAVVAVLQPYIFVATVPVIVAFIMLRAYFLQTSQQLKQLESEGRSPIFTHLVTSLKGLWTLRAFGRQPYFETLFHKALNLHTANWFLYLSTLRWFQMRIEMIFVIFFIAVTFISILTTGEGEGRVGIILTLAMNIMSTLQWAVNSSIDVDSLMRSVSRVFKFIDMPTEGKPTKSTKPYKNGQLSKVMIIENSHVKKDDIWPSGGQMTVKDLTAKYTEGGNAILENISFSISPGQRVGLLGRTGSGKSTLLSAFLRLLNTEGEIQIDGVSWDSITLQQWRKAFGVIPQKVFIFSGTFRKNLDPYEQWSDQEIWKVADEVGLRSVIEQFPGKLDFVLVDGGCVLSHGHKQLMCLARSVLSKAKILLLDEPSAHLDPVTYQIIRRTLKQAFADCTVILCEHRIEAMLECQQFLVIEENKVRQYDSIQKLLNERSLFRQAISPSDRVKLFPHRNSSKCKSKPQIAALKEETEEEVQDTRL

| Structure (SMILES) | CFTR Activity |
| --- | --- |
| Cl.NCC(CCl)Oc1ncncc1NC(=O)c1nc(-c2c(F)cccc2F)c(F)cc1N (centres unmarked) [Example 33, 3-amino-N-(4-((1-amino-3-chloropropan-2-yl)oxy)pyrimidin-5-yl)-6-(2,6-difluorophenyl)-5-fluoropicolinamide hydrochloride] | 2.2 |
| Cl.NCC(CCl)COc1ncncc1NC(=O)c1nc(-c2c(F)cccc2F)c(F)cc1N (centres unmarked) [Example 34, 3-amino-N-(4-(3-amino-2-(chloromethyl)propoxy)pyrimidin-5-yl)-6-(2,6-difluorophenyl)-5-fluoropicolinamide hydrochloride] | 2.0 |
| Cl.Nc1cc(F)c(-c2c(F)cccc2F)nc1C(=O)Nc1cncnc1OCC1CCCNC1 (centres unmarked) [Example 35, 3-amino-6-(2,6-difluorophenyl)-5-fluoro-N-(4-(piperidin-3-ylmethoxy)pyrimidin-5-yl)picolinamide hydrochloride] | 2.1 |
| Cl.NCCCCOc1ncncc1NC(=O)c1nc(-c2c(F)cccc2F)c(F)cc1N [Example 36, 3-amino-N-(4-(4-aminobutoxy)pyrimidin-5-yl)-6-(2,6-difluorophenyl)-5-fluoropicolinamide] | 2.4 |
| Cl.Nc1cc(F)c(-c2c(F)cccc2F)nc1C(=O)Nc1cncnc1OC1CCCC(N)C1 (centres unmarked) [Example 37, 3-amino-N-(4-((3-aminocyclohexyl)oxy)pyrimidin-5-yl)-6-(2,6-difluorophenyl)-5-fluoropicolinamide] | 4.1 |
| Cl.Nc1cc(F)c(-c2ccccc2)nc1C(=O)Nc1cncnc1OC1CCNC1 (centres unmarked) [Example 38, 3-amino-5-fluoro-6-phenyl-N-(4-(pyrrolidin-3-yloxy)pyrimidin-5-yl)picolinamide hydrochloride] | 1.1 |
| Cl.O=C(Nc1cncnc1OC1CCNCC1)c1ccc(F)c(-c2ccncc2)n1 [Example 39, 3-fluoro-N-(4-(piperidin-4-yloxy)pyrimidin-5-yl)-[2,4′-bipyridine]-6-carboxamide hydrochloride] | 0.5 |

The remaining lines, values ahead:

| CFTR Activity | Structure (SMILES) |
| --- | --- |
| 1.9 | Cl.O=C(Nc1cncnc1OC1CCCNCC1)c1nc(-c2c(F)cccc2F)ccc1F (centres unmarked) [Example 40, N-(4-(azepan-4-yloxy)pyrimidin-5-yl)-6-(2,6-difluorophenyl)-3-fluoropicolinamide hydrochloride] |
| 1.8 | COc1cccc(F)c1-c1nc(C(=O)Nc2cncnc2OC2CCCNCC2)ccc1F.Cl (centres unmarked) [Example 41, N-(4-(azepan-4-yloxy)pyrimidin-5-yl)-5-fluoro-6-(2-fluoro-6-methoxyphenyl)picolinamide hydrochloride] |
| 2.4 | Cl.O=C(Nc1cncnc1OC1CCCNCC1)c1ccc(C(F)(F)F)c(-c2c(F)cccc2F)n1 (centres unmarked) [Example 42, N-(4-(azepan-4-yloxy)pyrimidin-5-yl)-6-(2,6-difluorophenyl)-5-(trifluoromethyl)picolinamide hydrochloride] |
| 1.3 | Cl.O=C(Nc1cncnc1OCC1CCNCC1)c1ccc(C(F)(F)F)c(-c2c(F)cccc2F)n1 [Example 43, 6-(2,6-difluorophenyl)-N-(4-(piperidin-4-ylmethoxy)pyrimidin-5-yl)-5-(trifluoromethyl)picolinamide hydrochloride] |
| 1.8 | Cl.O=C(Nc1cncnc1OCC1CNC1)c1ccc(C(F)(F)F)c(-c2c(F)cccc2F)n1 [Example 44, N-(4-(azetidin-3-ylmethoxy)pyrimidin-5-yl)-6-(2,6-difluorophenyl)-5-(trifluoromethyl)picolinamide hydrochloride] |
| 2.7 | Cl.O=C(Nc1cncnc1OC1CCNCC1)c1ccc(C(F)(F)F)c(-c2c(F)cccc2F)n1 [Example 45, 6-(2,6-difluorophenyl)-N-(4-(piperidin-4-yloxy)pyrimidin-5-yl)-5-(trifluoromethyl)picolinamide hydrochloride] |
| 3.2 | Cl.N[C@H]1CC[C@H](Oc2ncncc2NC(=O)c2ccc(C(F)(F)F)c(-c3c(F)cccc3F)n2)CC1 [Example 46, N-(4-(((1r,4r)-4-aminocyclohexyl)oxy)pyrimidin-5-yl)-6-(2,6-difluorophenyl)-5-(trifluoromethyl)picolinamide hydrochloride] |

— patent US9981945B2, “Pyrimidine derivatives as CFTR modulators” (NuBridge BioSciences, priority 2015, dated 2018)
